Literature values as cited in PMC7126291 (Bioorganic & Medicinal Chemistry Letters, 2009).

How the values were obtained:
human rhinovirus = details: Phase II clinical trials, intranasal delivery

Structure (SMILES)	IC50 (HAV 3C^pro) [nM]	reduction of mean total daily symptom score (human rhinovirus) [%]
O=C(Oc1cncc(Br)c1)c1ccco1 [Compound 7]	53	–
CCOC(=O)/C=C/[C@H](C[C@@H]1CCNC1=O)NC(=O)[C@@H](CC(=O)[C@@H](NC(=O)c1cc(C)on1)C(C)C)Cc1ccc(F)cc1 [rupintrivir]	–	33
